The subject of this assay is Swiss mice, Sarcoma 180 sc, mean tumor weight T/C. Briefly: NCI In Vivo Anticancer Drug Screen. Data for tumor model Sarcoma 180 (subcutaneous) in Swiss mice. As to conditions: endpoint: mean tumor weight, higher = larger tumour. The method, boiled down:
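T/C ratio: treated over vehicle-treated controls, measuring survival or tumor size in transplanted-tumor mice.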

Where [1] appears, read: dose: 60.0 mg/kg/injection, schedule: Q01DX007 (ip), vehicle: carboxymethylcellulose (CMC).
Where [2] appears, read: dose: 50.0 mg/kg/injection, schedule: Q01DX007 (ip), vehicle: carboxymethylcellulose (CMC).
Setting [3] is: dose: 2.5 mg/kg/injection, schedule: Q01DX007 (sc), vehicle: steriod suspending solution.
[4] abbreviates: dose: 10.0 mg/kg/injection, schedule: Q01DX007 (sc), vehicle: steriod suspending solution.

Data on 14 molecules can be found in PubChem BioAssay AID342 (DTP/NCI, 2004).

The T/C is the ratio of treated to control. Turning to `CCN(CC)CCNc1ccc(C)c2sc3ccccc3c(=O)c12`, the T/C was 120 % of control (dose: 4.87 mg/kg/injection, schedule: Q#A X014 (ip), vehicle: carboxymethylcellulose (CMC)); 93 % of control (dose: 7.5 mg/kg/injection, schedule: Q01DX007 (ip), vehicle: carboxymethylcellulose (CMC)); 60 % of control (dose: 9.75 mg/kg/injection, schedule: Q01DX007 (ip), vehicle: carboxymethylcellulose (CMC)); 77 % of control (dose: 9.75 mg/kg/injection, schedule: Q#A X014 (ip), vehicle: carboxymethylcellulose (CMC)); 85 % of control (dose: 12.5 mg/kg/injection, schedule: Q#A X014 (ip), vehicle: carboxymethylcellulose (CMC)); 101 % of control (dose: 15.0 mg/kg/injection, schedule: Q01DX007 (ip), vehicle: carboxymethylcellulose (CMC)). Besides, the T/C is, setting by setting: (dose: 19.5 mg/kg/injection, schedule: Q01DX007 (ip), vehicle: carboxymethylcellulose (CMC)) 72 % of control; (dose: 19.5 mg/kg/injection, schedule: Q#A X014 (ip), vehicle: carboxymethylcellulose (CMC)) 75 % of control; (dose: 25.0 mg/kg/injection, schedule: Q#A X014 (ip), vehicle: carboxymethylcellulose (CMC)) 64 % of control; (dose: 30.0 mg/kg/injection, schedule: Q01DX007 (ip), vehicle: carboxymethylcellulose (CMC)) 106 % of control; (dose: 31.2 mg/kg/injection, schedule: Q01DX007 (ip), vehicle: carboxymethylcellulose (CMC)) 117 % of control; (dose: 39.0 mg/kg/injection, schedule: Q#A X014 (ip), vehicle: carboxymethylcellulose (CMC)) 32 % of control. The T/C is 35 % of control (dose: 50.0 mg/kg/injection, schedule: Q#A X014 (ip), vehicle: carboxymethylcellulose (CMC)); 82 % of control (dose: 52.0 mg/kg/injection, schedule: Q01DX007 (ip), vehicle: carboxymethylcellulose (CMC)); 55 % of control under setting [1].
Regarding `O=C(Nc1ccc(C2=NCCCN2)cc1)c1ccc(C(=O)Nc2ccc(C3=NCCCN3)cc2)cc1`, the T/C is 83 % of control (dose: 0.2 mg/kg/injection, schedule: Q01DX007 (ip), vehicle: water); 106 % of control (dose: 0.4 mg/kg/injection, schedule: Q01DX007 (ip), vehicle: water); 88 % of control (dose: 0.8 mg/kg/injection, schedule: Q01DX007 (ip), vehicle: water); 80 % of control (dose: 1.0 mg/kg/injection, schedule: Q01DX007 (ip), vehicle: carboxymethylcellulose (CMC)); 90 % of control (dose: 1.6 mg/kg/injection, schedule: Q01DX007 (ip), vehicle: water); 93 % of control (dose: 2.0 mg/kg/injection, schedule: Q01DX007 (ip), vehicle: carboxymethylcellulose (CMC)). In addition, the T/C is, setting by setting: (dose: 8.0 mg/kg/injection, schedule: Q01DX007 (ip), vehicle: carboxymethylcellulose (CMC)) 104 % of control; (dose: 16.0 mg/kg/injection, schedule: Q01DX007 (ip), vehicle: carboxymethylcellulose (CMC)) 25 % of control; (dose: 32.0 mg/kg/injection, schedule: Q01DX007 (ip), vehicle: carboxymethylcellulose (CMC)) 14 % of control.
As for `CO/[N+]([O-])=C\C(=O)N/C=C/C(=O)O`, the T/C under setting [2] is 79 % of control.
For `Nc1nc(SCc2ccccn2)c2ncn(C3OC(CO)C(O)C3O)c2n1` (stereo not given), the T/C runs as follows: (dose: 11.1 mg/kg/injection, schedule: Q#A X014 (ip), vehicle: methylcellulose (MC)) 52 % of control; (dose: 16.65 mg/kg/injection, schedule: Q#A X014 (ip), vehicle: methylcellulose (MC)) 48 % of control; (dose: 25.0 mg/kg/injection, schedule: Q#A X014 (ip), vehicle: methylcellulose (MC)) 37 % of control; (dose: 37.5 mg/kg/injection, schedule: Q#A X014 (ip), vehicle: methylcellulose (MC)) 41 % of control.
Consider `CC1(C)N=C(N)N=C(N)N1c1cccc(Cl)c1`, for which the T/C was 83 % of control (dose: 3.97 mg/kg/injection, schedule: Q01DX007 (ip), vehicle: carboxymethylcellulose (CMC)); 85 % of control (dose: 6.95 mg/kg/injection, schedule: Q01DX007 (ip), vehicle: carboxymethylcellulose (CMC)); 68 % of control (dose: 13.9 mg/kg/injection, schedule: Q01DX007 (ip), vehicle: carboxymethylcellulose (CMC)); 74 % of control (dose: 27.8 mg/kg/injection, schedule: Q01DX007 (ip), vehicle: carboxymethylcellulose (CMC)).
For `COc1ccc2c(c1)CC[C@@H]1[C@@H]2CC[C@]2(C)C=CC[C@@H]12`, the T/C was 104 % of control under setting [3]; 91 % of control (dose: 5.0 mg/kg/injection, schedule: Q01DX007 (sc), vehicle: steriod suspending solution); 75 % of control under setting [4].
On to `O=C1c2ccccc2C(=O)c2c1ccc1c2[nH]c2ccccc21`, for which the T/C by setting is: (dose: 82.0 mg/kg/injection, schedule: Q01DX007 (ip), vehicle: saline) 48 % of control; (dose: 125.0 mg/kg/injection, schedule: Q01DX007 (ip), vehicle: saline) 50 % of control; (dose: 187.0 mg/kg/injection, schedule: Q01DX007 (ip), vehicle: saline) 23 % of control; (dose: 280.0 mg/kg/injection, schedule: Q01DX007 (ip), vehicle: saline) 42 % of control.
In the case of `COC(=O)C1(N)CCCC1`, the T/C reads like this: under setting [1], 59 % of control; (dose: 90.0 mg/kg/injection, schedule: Q01DX007 (ip), vehicle: carboxymethylcellulose (CMC)) 42 % of control; (dose: 135.0 mg/kg/injection, schedule: Q01DX007 (ip), vehicle: carboxymethylcellulose (CMC)) 33 % of control; (dose: 202.0 mg/kg/injection, schedule: Q01DX007 (ip), vehicle: carboxymethylcellulose (CMC)) 20 % of control.
Turning to `Cc1ncc([N+](=O)[O-])n1CCCl`, the T/C by setting is: (dose: 62.5 mg/kg/injection, schedule: Q01DX007 (ip), vehicle: saline) 108 % of control; (dose: 250.0 mg/kg/injection, schedule: Q01DX007 (ip), vehicle: saline) 78 % of control.
Turning to `C[C@]12CCc3c(ccc4cc(O)ccc34)[C@@H]1C[C@H](O)[C@@H]2O`, the T/C under setting [3] was 90 % of control and the T/C under setting [4] is 95 % of control.
As for `COC(=O)c1cc([N+](=O)[O-])cc([N+](=O)[O-])c1Cl`, the T/C runs as follows: (dose: 6.0 mg/kg/injection, schedule: Q01DX007 (ip), vehicle: methylcellulose (MC)) 91 % of control; (dose: 12.0 mg/kg/injection, schedule: Q01DX007 (ip), vehicle: methylcellulose (MC)) 111 % of control; (dose: 25.0 mg/kg/injection, schedule: Q01DX007 (ip), vehicle: methylcellulose (MC)) 86 % of control.
As for `CN(C)[C@@H]1C(=O)C(C(=O)NCNC2(C(=O)O)CCCC2)=C(O)[C@@]2(O)C(=O)C3=C(O)c4c(O)cccc4[C@@](C)(O)[C@H]3C[C@@H]12`, the T/C (dose: 25.0 mg/kg/injection, schedule: Q01DX007 (ip), vehicle: saline) was 103 % of control; the T/C (dose: 50.0 mg/kg/injection, schedule: Q01DX007 (ip), vehicle: saline) was 67 % of control; the T/C (dose: 62.0 mg/kg/injection, schedule: Q01DX007 (ip), vehicle: saline) is 103 % of control; the T/C (dose: 75.0 mg/kg/injection, schedule: Q01DX007 (ip), vehicle: saline) was 41 % of control.
As for `COc1ccc2c(c1)CC[C@@H]1[C@@H]2CC[C@@]2(C)[C@H]1CC[C@@]2(O)C(F)=C(F)F`, the T/C by setting is: (dose: 33.0 mg/kg/injection, schedule: Q01DX007 (sc), vehicle: steriod suspending solution) 52 % of control; (dose: 50.0 mg/kg/injection, schedule: Q01DX007 (sc), vehicle: steriod suspending solution) 46 % of control; (dose: 75.0 mg/kg/injection, schedule: Q01DX007 (sc), vehicle: steriod suspending solution) 44 % of control; (dose: 111.0 mg/kg/injection, schedule: Q01DX007 (sc), vehicle: steriod suspending solution) 45 % of control; (dose: 167.0 mg/kg/injection, schedule: Q01DX007 (sc), vehicle: steriod suspending solution) 37 % of control; (dose: 250.0 mg/kg/injection, schedule: Q01DX007 (sc), vehicle: steriod suspending solution) 50 % of control. In addition, the T/C (dose: 375.0 mg/kg/injection, schedule: Q01DX007 (sc), vehicle: steriod suspending solution) is 55 % of control.
With `NC1(C(=O)OCc2ccccc2)CCCC1`, the T/C under setting [2] is 87 % of control; the T/C (dose: 100.0 mg/kg/injection, schedule: Q01DX007 (ip), vehicle: carboxymethylcellulose (CMC)) was 76 % of control; the T/C (dose: 200.0 mg/kg/injection, schedule: Q01DX007 (ip), vehicle: carboxymethylcellulose (CMC)) was 66 % of control; the T/C (dose: 333.0 mg/kg/injection, schedule: Q01DX007 (ip), vehicle: carboxymethylcellulose (CMC)) was 64 % of control; the T/C (dose: 400.0 mg/kg/injection, schedule: Q01DX007 (ip), vehicle: carboxymethylcellulose (CMC)) was 47 % of control; the T/C (dose: 500.0 mg/kg/injection, schedule: Q01DX007 (ip), vehicle: carboxymethylcellulose (CMC)) was 36 % of control. Moreover, the T/C (dose: 750.0 mg/kg/injection, schedule: Q01DX007 (ip), vehicle: carboxymethylcellulose (CMC)) is 55 % of control and the T/C (dose: 800.0 mg/kg/injection, schedule: Q01DX007 (ip), vehicle: carboxymethylcellulose (CMC)) was 25 % of control.
